# From publication PMC5267425, “Identification of small molecule modulators of HIV-1 Tat and Rev protein accumulation” (Retrovirology, 2017)
# Test system: alternative splicing of host transcripts in HeLa rtTA HIV∆Mls cells
# Experiment: RT-PCR of host alternative splicing events (PSI), capillary electrophoresis
# Format: cell-based
# Procedure: To assess the effect of compounds on expression/alternative splicing of cellular RNA, two approaches were used. For both, total RNA was prepared from DMSO or compound-treated cells. In the first assay, samples were assayed by medium throughput RT-PCR to determine the inclusion levels of alternatively spliced exons and splice sites located in 73 selected events. 73 primer sets containing a fluorescently (5-FAM) labeled primer for each, were used in RT-PCR. PCR products generated were denatured in formamide and quantified using ABI Prism capillary sequencer (Life Technologies). The fragment analysis was performed on the PeakScanner software (Life Technologies) in batch mode and automated using custom scripts written in Python. The inclusion level of each exon was calculated as the amount of transcripts carrying the alternative exon relative to the total amount of all transcripts detected in the PCR reaction and results are summarized for compound-treatment in comparison to DMSO treatment. In the second assay, extracted RNA was processed using the Illumina TruSeq RNA Sample Preparation Kit (Illumina) according to the manufacturer’s instructions. The cDNA library generated was validated (passed quality control on a Bioanalyzer 1000 DNA chip (Agilent)), normalized and pooled for cluster generation. cDNA libraries were sequenced on the Illumina HiSeq 2500 (paired-end, 125 bp) with version 4 chemistry following manufacturer’s protocols. The full human genome and transcriptomic sequences were downloaded from the UCSC Genome Browser (genome.ucsc.edu) database and Ensembl (www.ensembl.org), respectively, as described by Irimia et al.. Exon annotations and genomic coordinates for alternative splicing (AS) analysis were derived from tables downloaded from the UCSC Genome Browser database. To determine gene expression (GE) or alternative splicing (AS) changes in an unbiased way, the effective number of unique mappable positions in each transcript (i.e. the effective length) was determined by aligning sequences with unique transcriptomic alignment to the human genome using Bowtie. Reads with one unique genomic alignment were then aligned against the canonical transcriptome and, for each transcript, the number of reads with one unique transcriptomic alignment were counted. The expression level of genes was quantified as corrected ‘reads per kilobase of exon model per million mapped reads’ (cRPKM), a widely used metric to estimate gene expression levels. The expression cutoff was 0.5 cRPKM, corresponding to the transcript of the gene being present if there were ≥10 reads that mapped uniquely to a single genomic locus. Approximately 19,847 Ensembl annotated protein-coding genes were compared to create a gene list of differentially expressed genes. Genes were considered differentially expressed if fold changes in cRPKM was ≥2 in compound-treated versus DMSO-treated samples.
# [1] = of 70 AS events, 791 30 µM, 833 2 µM
compound,measurement,setting,value
"Cc1cc(NCc2cccnc2)n2ncc(-c3ccc(Cl)cc3)c2n1 [Compound 791, 3-(4-chlorophenyl)-5-methyl-N-(3-pyridinylmethyl)pyrazolo[1,5-a]pyrimidin-7-amine]",DPSI AGPAT4_1 chr6:161506598-161506735,"9147791 minus DMSO, mean n=3",-4.00%
same,DPSI AGPAT4_1 chr6:161507269-161507439,"9147791 minus DMSO, mean n=3",-6.33%
same,DPSI APLP2_1 chr11:129498717-129498884,"9147791 minus DMSO, mean n=3",1.33%
same,DPSI APP_1 chr21:26291546-26291602,"9147791 minus DMSO, mean n=3",0.33%
same,DPSI APP_1 chr21:26294201-26294368,"9147791 minus DMSO, mean n=3",-1.33%
same,DPSI ATP6V0A1_1 chr17:37919833-37920004,"9147791 minus DMSO, mean n=3",2.00%
same,DPSI CA12_1 chr15:61406400-61406485,"9147791 minus DMSO, mean n=3",-0.33%
same,DPSI CA12_1 chr15:61407349-61407382,"9147791 minus DMSO, mean n=3",4.67%
same,DPSI CASP9_1 chr1:15703693-15703840*,"9147791 minus DMSO, mean n=3",-1.33%
same,DPSI CAST_1 chr5:96090613-96090669,"9147791 minus DMSO, mean n=3",5.33%
same,DPSI CLSTN1_1 chr1:9720143-9720199,"9147791 minus DMSO, mean n=3",-8.67%
same,DPSI CLSTN1_2 chr1:9739126-9739155,"9147791 minus DMSO, mean n=3",-2.33%
same,DPSI CRBN_1 chr3:3191846-3191950,"9147791 minus DMSO, mean n=3",0.00%
same,DPSI CRBN_1 chr3:3191950-3191953,"9147791 minus DMSO, mean n=3",0.00%
same,DPSI CTNND1_1 chr11:57318058-57318129,"9147791 minus DMSO, mean n=3",-4.33%
same,DPSI DNM1L_1 chr12:32782066-32782143,"9147791 minus DMSO, mean n=3",9.00%
same,DPSI DNM1L_1 chr12:32782465-32782497,"9147791 minus DMSO, mean n=3",-2.00%
same,DPSI DRCTNNB1A_1 chr7:22953096-22953391,"9147791 minus DMSO, mean n=3",-8.00%
same,DPSI EIF4A2_1 chr7:187988792-187988899,"9147791 minus DMSO, mean n=3",3.33%
same,DPSI EIF4A2_1 chr7:187988899-187988904,"9147791 minus DMSO, mean n=3",2.00%
same,DPSI EIF4H_1 chr7:73242512-73242572,"9147791 minus DMSO, mean n=3",0.00%
same,DPSI ERC1_1 chr12:1091641-1091725,"9147791 minus DMSO, mean n=3",2.67%
same,DPSI EXOC7_1 chr17:71598005-71598035,"9147791 minus DMSO, mean n=3",-6.00%
same,DPSI EXOC7_1 chr17:71598819-71598911,"9147791 minus DMSO, mean n=3",-4.67%
same,DPSI FAM62B_1 chr7:158238233-158238295,"9147791 minus DMSO, mean n=3",-8.33%
same,DPSI FAM104A_1 chr17:68720412-68720474,"9147791 minus DMSO, mean n=3",-1.00%
same,DPSI FGFR1OP2_1 chr12:27004715-27004828,"9147791 minus DMSO, mean n=3",-11.00%
same,DPSI FIP1L1_1 chr4:53975538-53975646,"9147791 minus DMSO, mean n=3",-4.33%
same,DPSI GGCT_1 chr7:30504943-30505080,"9147791 minus DMSO, mean n=3",3.33%
same,DPSI GGCT_1 chr7:30506676-30506822,"9147791 minus DMSO, mean n=3",3.33%
same,DPSI GLK_1 chr2:39388587-39388650,"9147791 minus DMSO, mean n=3",-0.33%
same,DPSI GM130_1 chr9:130069293-130069374,"9147791 minus DMSO, mean n=3",-9.67%
same,DPSI GRB10_1 chr7:50651400-50651538,"9147791 minus DMSO, mean n=3",-0.33%
same,DPSI KIF13A_1 chr6:17879324-17879428,"9147791 minus DMSO, mean n=3",-1.33%
same,DPSI MACF1_1 chr1:39616720-39616782,"9147791 minus DMSO, mean n=3",3.33%
same,DPSI MACF1_5 chr1:39719179-39719289,"9147791 minus DMSO, mean n=3",-13.67%
same,DPSI MAP3K7_1 chr6:91310992-91311072,"9147791 minus DMSO, mean n=3",0.33%
same,DPSI MARK3_1 chr14:103034592-103034618,"9147791 minus DMSO, mean n=3",-2.67%
same,DPSI MARK3_1 chr14:103036246-103036290,"9147791 minus DMSO, mean n=3",-1.33%
same,DPSI MBD1_1 chr18:46054554-46054721,"9147791 minus DMSO, mean n=3",-9.33%
same,DPSI MBNL2_1 chr13:96807051-96807104,"9147791 minus DMSO, mean n=3",0.33%
same,DPSI MFF_1 chr2:227901637-227901749,"9147791 minus DMSO, mean n=3",4.33%
same,DPSI MRIP_1 chr17:17024646-17024708,"9147791 minus DMSO, mean n=3",1.00%
same,DPSI MVK_1 chr12:108501990-108502134,"9147791 minus DMSO, mean n=3",11.00%
same,DPSI MVK_1 chr12:108503583-108503738,"9147791 minus DMSO, mean n=3",20.33%
same,DPSI NAP1L1_1 chr12:74747418-74747520,"9147791 minus DMSO, mean n=3",4.67%
same,DPSI NAP1L1_1 chr12:74748956-74749041,"9147791 minus DMSO, mean n=3",4.33%
same,DPSI NPHP3_1 chr3:133898264-133898347,"9147791 minus DMSO, mean n=3",-1.00%
same,DPSI NUMB_2 chr14:72815742-72815885,"9147791 minus DMSO, mean n=3",0.67%
same,DPSI NUMB_2 chr14:72820542-72820835,"9147791 minus DMSO, mean n=3",6.67%
same,DPSI PDCL_1 chr9:124628716-124628892,"9147791 minus DMSO, mean n=3",1.33%
same,DPSI POLDIP3_1 chr22:41327919-41328006,"9147791 minus DMSO, mean n=3",-3.67%
same,DPSI POMT1_1 chr9:133368281-133368521,"9147791 minus DMSO, mean n=3",5.67%
same,DPSI POMT1_1 chr9:133371321-133371428,"9147791 minus DMSO, mean n=3",5.67%
same,DPSI RAI14_1 chr5:34849436-34849522,"9147791 minus DMSO, mean n=3",3.67%
same,DPSI RAN_1 chr12:129923082-129923127,"9147791 minus DMSO, mean n=3",-2.00%
same,DPSI RPS24_1 chr10:79467729-79467746,"9147791 minus DMSO, mean n=3",1.67%
same,DPSI SEC24B_1 chr4:110622281-110622386,"9147791 minus DMSO, mean n=3",-4.00%
same,DPSI SETD5_1 chr3:9453533-9453572,"9147791 minus DMSO, mean n=3",-1.33%
same,DPSI SMN2_1 chr5_h2_hap1:475625-475826,"9147791 minus DMSO, mean n=3",0.33%
same,DPSI SMN2_2 chr5_h2_hap1:466192-466246,"9147791 minus DMSO, mean n=3",1.67%
same,DPSI SPAG9_1 chr17:46408223-46408261,"9147791 minus DMSO, mean n=3",-6.67%
same,DPSI SRPK2_1 chr2:104553464-104553557,"9147791 minus DMSO, mean n=3",-1.00%
same,DPSI SRPK2_1 chr2:104553930-104554023,"9147791 minus DMSO, mean n=3",0.00%
same,DPSI TPM1_1 chr15:61140450-61140525,"9147791 minus DMSO, mean n=3",1.67%
same,DPSI TPM1_1 chr15:61140965-61141040,"9147791 minus DMSO, mean n=3",-1.67%
same,DPSI TRIM37_1 chr17:54433741-54433857,"9147791 minus DMSO, mean n=3",-4.67%
same,DPSI ZNF827_1 chr4:146903692-146903724,"9147791 minus DMSO, mean n=3",2.33%
same,DPSI ZNF827_1 chr4:146905581-146905589,"9147791 minus DMSO, mean n=3",-1.00%
same,AS events with DPSI ≤ -10%,[1],2
same,AS events with DPSI ≥ 10%,[1],0
same,AS events with P ≤ 0.05,[1],9
